For assay [1], the target named is T1, human sGC (Homo sapiens, UniProt Q02153).
T1 sequence (Q02153 1-619): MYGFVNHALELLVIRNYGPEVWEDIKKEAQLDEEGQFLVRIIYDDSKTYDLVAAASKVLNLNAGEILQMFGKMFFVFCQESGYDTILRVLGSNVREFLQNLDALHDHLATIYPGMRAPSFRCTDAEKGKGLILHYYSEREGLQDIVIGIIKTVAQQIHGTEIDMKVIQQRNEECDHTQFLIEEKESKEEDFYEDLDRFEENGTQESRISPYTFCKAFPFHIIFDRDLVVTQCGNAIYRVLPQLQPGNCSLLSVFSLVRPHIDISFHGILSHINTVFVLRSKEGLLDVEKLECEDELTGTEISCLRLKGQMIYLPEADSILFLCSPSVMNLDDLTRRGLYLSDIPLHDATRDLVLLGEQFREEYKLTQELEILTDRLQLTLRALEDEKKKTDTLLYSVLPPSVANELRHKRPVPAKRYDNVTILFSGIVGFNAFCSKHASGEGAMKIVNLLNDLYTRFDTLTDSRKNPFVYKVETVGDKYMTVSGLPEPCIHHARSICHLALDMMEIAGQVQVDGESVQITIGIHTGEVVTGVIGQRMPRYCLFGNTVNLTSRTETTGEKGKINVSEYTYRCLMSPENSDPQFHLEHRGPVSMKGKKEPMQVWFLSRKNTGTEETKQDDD
T1 sequence (Q02108 1-690 partner): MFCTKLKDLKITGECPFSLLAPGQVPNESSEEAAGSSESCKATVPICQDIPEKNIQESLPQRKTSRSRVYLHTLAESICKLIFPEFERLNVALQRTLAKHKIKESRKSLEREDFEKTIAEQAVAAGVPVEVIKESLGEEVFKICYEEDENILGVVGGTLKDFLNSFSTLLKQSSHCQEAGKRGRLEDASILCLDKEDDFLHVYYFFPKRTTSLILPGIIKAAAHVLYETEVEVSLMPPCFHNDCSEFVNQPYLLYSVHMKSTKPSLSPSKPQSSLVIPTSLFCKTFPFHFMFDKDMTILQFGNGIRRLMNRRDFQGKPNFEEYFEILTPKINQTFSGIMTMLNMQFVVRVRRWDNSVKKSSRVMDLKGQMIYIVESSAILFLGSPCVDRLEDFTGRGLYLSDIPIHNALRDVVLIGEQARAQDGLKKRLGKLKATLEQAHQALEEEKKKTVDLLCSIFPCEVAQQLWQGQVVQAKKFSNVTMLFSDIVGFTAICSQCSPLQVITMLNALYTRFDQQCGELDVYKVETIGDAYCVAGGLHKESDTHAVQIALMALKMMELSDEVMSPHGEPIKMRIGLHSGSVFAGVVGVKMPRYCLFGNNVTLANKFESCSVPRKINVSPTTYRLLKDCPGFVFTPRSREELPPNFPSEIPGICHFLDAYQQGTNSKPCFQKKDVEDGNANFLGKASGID
Kind of assay: sGC enzyme assay, fluorescence polarisation of labelled cGMP. The format is biochemical. Particulars: human sGC 1 nM, FP assay; concentration able to increase by 5-fold basal cGMP. How it is done: The activity of soluble guanylate cyclase (sGC) was tested in an assay based on measuring the fluorescent polarisation (FP) signal of fluorescently labelled cGMP. FP increased on interaction with an anti-cGMP antibody as the motility of the molecule was reduced. Newly produced cGMP displaced the interaction giving rise to a decrease in polarisation and FP signal which was equated to enzyme activity. Compounds were incubated with human sGC, anti-cGMP antibody, the GTP substrate and fluorescently labelled cGMP. After a period of one hour the assay was stopped with the addition of EDTA and after a further hour the assay was read.
Human sGC was thawed and resuspended in assay buffer (100 mM TRIS, 10 mM MgCl2, 0.2 mM Tween 20, pH7.4, containing 1:100 dilution of sheep anti-cGMP) to give final concentration of 1 nM in the well. A substrate solution was prepared containing GTP and 8-fluo-cGMP in de-ionized water to a final concentration of 25 μM and 50 nM respectively. Assay plates containing 5 μL of various test compounds and of a standard agonist (50 μM-50 nM) in 1% DMSO as 6 point, four fold dilutions across a 96 well plate were used in the assay. The plate also contained 6 wells of DMSO (1%) to produce high control and a cGMP standard curve (14 nM to 10 μM) to convert FP data to cGMP concentration. 25 μL of enzyme mix and 20 μl of substrate mix described above were added to each well of the plate. Samples were mixed on an orbital shaker and then incubated at room temperature for 1 hour. After this incubation period 5 μl of 0.5M EDTA was added to all wells and the plates were incubated for a further hour at room temperature prior to reading the FP signal in an appropriate reader. For data handling FP data were converted to cGMP concentrations and then fitted using ActivityBase software. The activity of a test compound was determined as the pEC500 value which is the concentration able to increase by 5-fold basal cGMP.

In assay [2] the target is T2, soluble guanylate cyclase (sGC) (Rattus norvegicus, UniProt P20595).
T2 construct: endogenous in cells; host or cells: primary rat aortic smooth muscle cells
T2 sequence (P20595 1-619): T1 sequence (Q02153 1-619) with N171S, E205D, N247K, T299A, K615N, D618E, D619N
T2 sequence (P19686 1-690 partner): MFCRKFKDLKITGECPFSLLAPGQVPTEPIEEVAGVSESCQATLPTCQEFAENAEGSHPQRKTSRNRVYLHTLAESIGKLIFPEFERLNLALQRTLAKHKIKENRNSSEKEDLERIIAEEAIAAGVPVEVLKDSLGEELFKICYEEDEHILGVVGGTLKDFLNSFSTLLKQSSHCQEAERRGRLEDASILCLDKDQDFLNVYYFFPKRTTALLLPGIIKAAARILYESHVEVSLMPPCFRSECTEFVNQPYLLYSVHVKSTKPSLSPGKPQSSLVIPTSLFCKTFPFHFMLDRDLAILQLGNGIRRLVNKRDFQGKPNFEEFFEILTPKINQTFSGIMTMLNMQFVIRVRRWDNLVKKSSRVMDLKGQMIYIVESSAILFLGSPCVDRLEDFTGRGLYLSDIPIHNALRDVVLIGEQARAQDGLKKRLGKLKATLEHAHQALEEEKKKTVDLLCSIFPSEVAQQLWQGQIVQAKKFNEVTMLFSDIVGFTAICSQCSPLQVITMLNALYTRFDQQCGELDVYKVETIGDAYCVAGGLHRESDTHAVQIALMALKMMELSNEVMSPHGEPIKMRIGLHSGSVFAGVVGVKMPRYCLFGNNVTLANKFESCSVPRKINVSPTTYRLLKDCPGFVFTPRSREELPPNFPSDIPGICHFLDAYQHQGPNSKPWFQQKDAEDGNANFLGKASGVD
Kind of assay: Cellular assay, VASP phosphorylation in rat aortic smooth muscle cells with ODQ. The format is cell-based. Particulars: phospho-VASP signal, primary rat aortic smooth muscle cells, 10 μM ODQ, 30 min incubation; 50% vs. Bmax; read-out: Cell assay pEC50 (converted). How it is done:
The activity of soluble guanylate cyclase (sGC) was tested in an assay based on measuring phosphorylation of the protein kinase G (PKG) substrate vasodilator-stimulated phosphoprotein (VASP) in rat aortic smooth muscle cells. […] Dimethylsulfoxide (DMSO) vehicle and varying concentrations of the compound to be tested were then added. Following a 30 min incubation at 37° C., media was aspirated and the cells were rinsed with phosphate-buffered saline (PBS) and fixed with 4% formaldehyde in PBS by incubating at room temperature for 20 min. Cells were then washed with PBS and permeabilized for 10 min using 0.1% triton X-100 in PBS. Following PBS rinsing, the cells were blocked for 90 min at room temperature with blocking buffer. The buffer was aspirated and the cells were treated overnight at 4° C. with primary antibody (pSer239-VASP, rabbit polyclonal Ab) diluted 1:500 in blocking buffer. Following three washes with 0.05% Tween 20, the cells were treated for 1 h at room temperature with a fluorescent labeled secondary antibody (IRDye® 800CW Donkey Anti-Rabbit IgG) diluted 1:2500 in blocking buffer with 0.05% Tween 20. Following two washes with PBS, infrared fluorescence was measured using an Odyssey Infrared Imaging System. The activity of a test compound was determined as the pEC50 value which is the concentration able to increase by 50% (vs. Bmax) the phospho-VASP fluorescent signal. Front. Pharmacol., 5 Jul. 2012|doi: 10.3389/fphar.2012.00128, Volume 3 July, 2012, Article number 128.

These results are taken from US20160214956A1, “NOVEL SOLUBLE GUANYLATE CYCLASE ACTIVATORS AND THEIR USE” (GLAXOSMITHKLINE INTELLECTUAL PROPERTY DEVELOPMENT LIMITED, priority 2013, published 2016).

Residue numbers refer to the chain shown, from its start. Structures can show the parent of a compound that is named as a salt.

For the compound `O=C(O)c1cnn(-c2cccc(-c3ccccc3CCc3ccc(OCCCN4CCOCC4)cc3)n2)c1C(F)(F)F` [Example 2, 1-(6-(2-(4-(3-morpholinopropoxy)phenethyl)phenyl)pyridin-2-yl)-5-(trifluoromethyl)-1H-pyrazole-4-carboxylic acid], in assay [1], the “sGC pEC500” value was 6.19.

Take `Cc1cc(OCCCC(F)(F)F)ccc1CCc1ccc(F)cc1-c1cccc(-n2ncc(C(=O)O)c2C(F)(F)F)n1` [Example 13, 1-(6-(5-Fluoro-2-(2-methyl-4-(4,4,4-trifluorobutoxy)phenethyl)phenyl)pyridin-2-yl)-5-(trifluoromethyl)-1H-pyrazole-4-carboxylic acid]: the EC50 in assay [2] is 1.26 nM.

Take `Cc1cc(OCCCn2cccn2)ccc1CCc1ccc(F)cc1-c1cccc(-n2ncc(C(=O)O)c2C(F)(F)F)n1` [Example 14, 1-(6-(2-(4-(3-(1H-pyrazol-1-yl)propoxy)-2-methylphenethyl)-5-fluorophenyl)pyridin-2-yl)-5-(trifluoromethyl)-1H-pyrazole-4-carboxylic acid]: in assay [2], the EC50 was 1.58 nM.

Take `Cc1cc(OCCCn2cc(C#N)cn2)ccc1CCc1ccc(F)cc1-c1cccc(-n2ncc(C(=O)O)c2C(F)(F)F)n1` [Example 15, 1-(6-(2-(4-(3-(4-cyano-1H-pyrazol-1-yl)propoxy)-2-methylphenethyl)-5-fluorophenyl)pyridin-2-yl)-5-(trifluoromethyl)-1H-pyrazole-4-carboxylic acid, sodium salt]: the EC50 in assay [2] is 39.8 nM.

As to `COc1cnn(CCCOc2ccc(CCc3ccc(F)cc3-c3cccc(-n4ncc(C(=O)O)c4C(F)(F)F)n3)c(C)c2)c1` [Example 16, 1-(6-(5-Fluoro-2-(4-(3-(4-methoxy-1H-pyrazol-1-yl)propoxy)-2-methylphenethyl)phenyl)pyridin-2-yl)-5-(trifluoromethyl)-1H-pyrazole-4-carboxylic acid, sodium salt], in assay [2], the EC50 was 6.31 nM.

In the case of `Cc1cc(OCCCn2cncn2)ccc1CCc1ccc(F)cc1-c1cccc(-n2ncc(C(=O)O)c2C(F)(F)F)n1` [Example 17, 1-(6-(2-(4-(3-(1H-1,2,4-triazol-1-yl)propoxy)-2-methylphenethyl)-5-fluorophenyl)pyridin-2-yl)-5-(trifluoromethyl)-1H-pyrazole-4-carboxylic acid, sodium salt], the EC50 in assay [2] is 20 nM.

For `Cc1cc(OCCCn2ccc(C#N)n2)ccc1CCc1ccc(F)cc1-c1cccc(-n2ncc(C(=O)O)c2C(F)(F)F)n1` [Example 18, 1-(6-(2-(4-(3-(3-cyano-1H-pyrazol-1-yl)propoxy)-2-methylphenethyl)-5-fluorophenyl)pyridin-2-yl)-5-(trifluoromethyl)-1H-pyrazole-4-carboxylic acid, sodium salt], the EC50 in assay [2] is 7.94 nM.

As for `CCOC(=O)c1cnn(-c2cccc(-c3ccccc3CCc3ccc(OCCCC(F)(F)F)cc3C)n2)c1C(F)(F)F` [Example 19, Ethyl 1-(6-(2-(2-methyl-4-(4,4,4-trifluorobutoxy)phenethyl)phenyl)pyridin-2-yl)-5-(trifluoromethyl)-1H-pyrazole-4-carboxylate], the EC50 in assay [2] was 251 nM.

`Cc1cc(OCCCC(F)(F)F)ccc1CCc1ccccc1-c1cccc(-n2ncc(C(=O)O)c2C(F)(F)F)n1` [Example 21, 1-(6-(2-(2-methyl-4-(4,4,4-trifluorobutoxy)phenethyl)phenyl)pyridin-2-yl)-5-(trifluoromethyl)-1H-pyrazole-4-carboxylic acid, sodium salt]: the EC50 in assay [2] was 7.94 nM.

On to `Cc1cc(OCCCC(F)(F)F)ccc1CCc1ccccc1-c1cccc(-n2ncc(C(=O)OC(C)C)c2C(F)(F)F)n1` [Example 22, Isopropyl 1-(6-(2-(2-methyl-4-(4,4,4-trifluorobutoxy)phenethyl)phenyl)pyridin-2-yl)-5-(trifluoromethyl)-1H-pyrazole-4-carboxylate], for which, in assay [2], the EC50 was 1260 nM.
